Earlier results on one molecule are cited in patent US10898449B2, “Transdermal therapeutic system containing asenapine” (LTS LOHMANN Therapie-Systeme AG, priority 2016, dated 2021).

In one data set the test system is patients. The following applies: human, in vivo.
For data set [1] the following is noted: sublingual administration, therapeutic doses.

As to `CN1C[C@H]2c3ccccc3Oc3ccc(Cl)cc3[C@@H]2C1` (relative stereo) [asenapine, (3aRS,12bRS)-rel-5-chloro-2,3,3a,12b-tetrahydro-2-methyl-1H-dibenz[2,3:6,7]oxepino[4,5-c]pyrrole], in the data set on patients, the “Somnolence and anxiety (very common), share of the patients” value was at least 10%. Besides, the terminal disposition half-life entry in data set [1] was “around 1 day”.
